Assay results from patent US11566003B2, “Isoquinolines as inhibitors of HPK1” (priority 2017, dated 2023).

What was measured:
[1] = target: HPK1 (Homo sapiens (Human), UniProt Q92918); assay: biochemical; format: binding
[2] = target: HPK1 (Homo sapiens (Human), UniProt Q92918, S171E/T165E); assay: biochemical

SMILES	Ki [1]	Ki [2]
C[C@H]1Cc2c(cncc2-c2cc(N)c3cnc(NC(=O)C4CC4)cc3c2)N1 [Compound 189, (S)—N-(8-amino-6-(2-methyl-2,3-dihydro-1H-pyrrolo[2,3-c]pyridin-4-yl)isoquinolin-3-yl)cyclopropanecarboxamide]	5.44 nM	
Cc1c(NC(C)C)cncc1-c1cc(N)c2cnc(NC(=O)[C@@H]3C[C@H]3C#N)cc2c1 (racemic) [Compound 186, (±)-trans-N-(8-amino-6-[4-methyl-5-[(propan-2-yl)amino]pyridin-3-yl]isoquinolin-3-yl)-2-cyanocyclopropane-1-carboxamide]	6.96 nM	
Cc1c(N)cncc1-c1cc2cc(NC(=O)[C@@H]3C[C@H]3CC#N)ncc2c(N)c1Cl (racemic) [Compound 209, (±)-trans-N-(8-amino-6-(5-amino-4-methylpyridin-3-yl)-7-chloroisoquinolin-3-yl)-2-(cyanomethyl)cyclopropanecarboxamide]	0.0405 nM	
